The source of these data is ChEMBL document CHEMBL3244149, “New synthetic routes to tilorone dihydrochloride and some of its analogues” (J Med Chem, 1978).

Data set [1] deals with Mus musculus. Description: Toxicity in CD-1 mouse at 300 mg/kg, ip. The format is organism-based. The arrangement: dose 300 mg/kg, route intraperitoneal. The following applies: in vivo.
Data set [2] deals with Mus musculus. As to the kind of experiment: Toxicity in CD-1 mouse at 100 mg/kg, ip. The format is organism-based. The arrangement: dose 100 mg/kg, route intraperitoneal. The following applies: in vivo.
Data set [3] relates to Mus musculus. As to the kind of experiment: Induction of interferon production in CD-1 mouse serum at 100 mg/kg, ip after 18 hrs. Type of data set: functional, organism-based. Also on record: dose 100 mg/kg.
For data set [4], the system named is Mus musculus. As to the kind of experiment: Induction of interferon production in CD-1 mouse serum at 10 to 30 mg/kg, ip after 18 hrs. Type of data set: functional, organism-based.

Structures are written as SMILES. The source made the active and inactive calls. The calls are words filed in the database; no cut-off is given here.

On to `CCN(CC)CCOc1ccc2c(c1)S(=O)(=O)c1cc(OCCN(CC)CC)ccc1-2`, for which the Activity result in the data set on Mus musculus [1] is “Toxic”; in the data set on Mus musculus [2] it was “Non-toxic”. Also, in the data set on Mus musculus [3], the outcome was inactive.
As to `CCN(CC)CCOc1ccc2c(c1)C(=O)c1cc(OCCN(CC)CC)ccc1-2`, the result in the data set with Mus musculus [3] was Active.
Turning to `CCN(CC)CCOc1cccc(C(=O)c2cccc(OCCN(CC)CC)c2)c1`, the Activity entry with Mus musculus [1] and in the data set on Mus musculus [2] was “Toxic” in each case. The outcome in the data set on Mus musculus [4] was inactive.
